Target: T1, GPR158 E271A mutant (Homo sapiens, UniProt Q5T848, E271A)
T1 construct: glycine site in Cache domain
T1 sequence (Q5T848 24-1215 E271A): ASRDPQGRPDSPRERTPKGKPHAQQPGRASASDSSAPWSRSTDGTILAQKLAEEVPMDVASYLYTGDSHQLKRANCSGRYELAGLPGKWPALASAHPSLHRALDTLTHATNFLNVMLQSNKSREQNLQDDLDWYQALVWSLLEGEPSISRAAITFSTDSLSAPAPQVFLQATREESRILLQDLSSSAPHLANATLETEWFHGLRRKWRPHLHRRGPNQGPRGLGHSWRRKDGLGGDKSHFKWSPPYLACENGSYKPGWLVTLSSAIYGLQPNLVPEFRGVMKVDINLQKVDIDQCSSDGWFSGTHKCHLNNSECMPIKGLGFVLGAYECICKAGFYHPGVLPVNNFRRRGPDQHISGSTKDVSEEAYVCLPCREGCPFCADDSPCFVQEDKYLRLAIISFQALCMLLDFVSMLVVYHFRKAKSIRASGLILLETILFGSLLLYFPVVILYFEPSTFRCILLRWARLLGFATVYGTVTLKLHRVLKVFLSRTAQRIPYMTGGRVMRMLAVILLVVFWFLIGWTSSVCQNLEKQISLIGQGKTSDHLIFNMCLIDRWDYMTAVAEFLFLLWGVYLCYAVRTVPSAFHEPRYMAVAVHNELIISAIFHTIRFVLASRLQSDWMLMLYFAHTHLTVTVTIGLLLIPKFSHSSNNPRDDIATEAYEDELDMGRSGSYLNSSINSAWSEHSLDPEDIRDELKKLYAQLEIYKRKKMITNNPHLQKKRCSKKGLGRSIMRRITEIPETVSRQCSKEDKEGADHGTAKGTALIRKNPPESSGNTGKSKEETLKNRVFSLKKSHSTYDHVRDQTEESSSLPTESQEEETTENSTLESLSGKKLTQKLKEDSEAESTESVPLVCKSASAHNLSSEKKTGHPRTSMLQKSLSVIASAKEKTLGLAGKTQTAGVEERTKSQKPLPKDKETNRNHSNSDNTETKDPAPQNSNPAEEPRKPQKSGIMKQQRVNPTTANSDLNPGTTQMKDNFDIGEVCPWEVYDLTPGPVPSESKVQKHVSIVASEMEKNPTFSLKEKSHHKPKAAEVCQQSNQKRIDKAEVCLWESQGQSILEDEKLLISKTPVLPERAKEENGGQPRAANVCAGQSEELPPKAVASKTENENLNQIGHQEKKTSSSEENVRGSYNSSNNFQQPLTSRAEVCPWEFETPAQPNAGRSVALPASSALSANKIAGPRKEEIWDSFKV
Test: Radioligand binding assay on GPR158 mutant E271A
Text: FIGS. 11A-11G. Probing Cache domain of GPR158 as a ligand binding site A) Computational docking of glycine into putative ligand binding pocket on GPR158 Cache domain. Glycine and directly interacting residues are shown as sticks. Hydrogen bonds and van der Waals interactions are shown as dotted lines. B) Diagram showing interactions in the docked model of glycine against GPR158 Cache domain. Hydrogen bonds are shown as dashed lines, van der Waals interactions are shown as intersecting semicircles, and the secondary structural context of Ser266 and Tyr269 is shown as an arc. Dagger indicates a residue implicated in glycine binding in 11A. C) Radioligand binding assay of ^3H-glycine in cells expressing GPR158 mutants. Data shown mean±s.e.m. of 3 independent experiments, *p<0.05, ns=p>0.05 one-way ANOVA. D) Functional evaluation of GPR158 mutants in GAP BRET assay. Error bars are mean±s.e.m. of 3 independent experiments in triplicate. *p<0.05, **p<0.01, ***p<0.001, ****p<0.0001, ns=p>0.05, two-way ANOVA Columns with no fill (Ctrl), columns with angled-line fill (Glycine) E) Quantification of glycine inhibitory effect on kGAP normalized to the effect seen with WT receptor. […]
Whole cell binding was performed using cDNA of GPR158-venus or each GPR158-venus mutant or empty pcDNA3.1+ for ctrl cells. […] Finally radioactivity was measured using the liquid scintillation analyzer Tri-Carb 4910 TR.

[^3H]-glycine binding: near complete loss
Structure (SMILES): NCC(=O)O [^3H-glycine, [^3H]-glycine]

Source: patent publication US20260376293A1, “METHODS FOR STUDYING GPR158 PHARMACOLOGY AND IDENTIFICATION OF ITS LIGANDS” (UNIVERSITY OF FLORIDA RESEARCH FOUNDATION, INCORPORATED, priority 2022, published 2026)
